Where two headings read alike, the source gives them in different places.
Columns and labels:
Conditions in all cases: trans-stimulation, solute 2 mM
[1] = biological target: PfCRT^Dd2 (Plasmodium falciparum, UniProt Q9N623, A220S/I356T/K76T/M74I/N326S/N75E/Q271E/R371I); experiment: cell-based; format: cell-based
In short: (§1)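 Transport measured in Xenopus oocytes expressing the transporters, 1.5 h at 27.5 °C in ND96 pH 5.5 unless noted. For trans-stimulation, VF-6 injected in 25 nL ND96 at pH 5.0–7.0 or Na^+-free (choline) buffer; intracellular levels based on ~400 nL oocyte volume. Ten oocytes per treatment, ≥4 experiments.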

[2] = biological target: PfCRT^3D7 (Plasmodium falciparum, UniProt Q8IBZ9); experiment: cell-based; format: cell-based
In short: as §1

[3] = biological target: PfCRT^Ecu1110 (Plasmodium falciparum, UniProt Q9N623, A220S/I356L/K76T/N326D); experiment: cell-based; format: cell-based
In short: as §1

[4] = biological target: T1, PfNT1 (Plasmodium falciparum, UniProt Q8IDM6); experiment: cell-based; format: cell-based
T1 construct: expressed in transfected cells; host or cells: Xenopus laevis oocytes (stage V-VI), cRNA-injected
In short: as §1

[5] = test system: non-expressing oocytes; format: cell-based, Xenopus laevis
In short: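 Oocytes (ten per treatment, ≥4 independent frogs/days) were preloaded by injecting VF-6 in 25 nL ND96 at pH 5.0, 5.5, 6.0 or 7.0, or Na^+-free choline buffer, then uptake run 1.5 h, 27.5 °C, ND96 pH 5.5 by default. Internal concentrations assumed ~400 nL oocyte volume.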

T1 sequence (Q8IDM6 whole entry): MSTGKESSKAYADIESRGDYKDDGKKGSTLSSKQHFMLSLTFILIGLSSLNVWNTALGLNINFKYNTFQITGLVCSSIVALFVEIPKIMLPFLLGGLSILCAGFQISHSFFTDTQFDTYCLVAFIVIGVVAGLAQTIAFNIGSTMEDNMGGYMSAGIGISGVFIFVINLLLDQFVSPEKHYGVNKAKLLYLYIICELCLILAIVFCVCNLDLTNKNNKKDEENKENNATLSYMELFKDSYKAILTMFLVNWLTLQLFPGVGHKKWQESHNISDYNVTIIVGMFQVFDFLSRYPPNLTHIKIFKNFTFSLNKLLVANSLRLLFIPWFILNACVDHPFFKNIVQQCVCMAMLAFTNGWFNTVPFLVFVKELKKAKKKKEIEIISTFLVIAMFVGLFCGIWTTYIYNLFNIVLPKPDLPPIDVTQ
Sequence of PfCRT^3D7 (Q8IBZ9 59-398): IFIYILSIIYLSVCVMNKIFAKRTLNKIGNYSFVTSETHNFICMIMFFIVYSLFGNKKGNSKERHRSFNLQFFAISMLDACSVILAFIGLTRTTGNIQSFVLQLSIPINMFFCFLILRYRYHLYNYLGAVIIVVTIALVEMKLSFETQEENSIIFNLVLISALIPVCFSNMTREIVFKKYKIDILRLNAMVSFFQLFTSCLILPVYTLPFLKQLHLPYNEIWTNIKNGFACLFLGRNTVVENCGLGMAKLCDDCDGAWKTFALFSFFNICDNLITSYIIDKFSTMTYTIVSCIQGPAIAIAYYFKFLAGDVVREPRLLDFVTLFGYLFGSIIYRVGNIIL
Sequence of PfCRT^Ecu1110 (Q9N623 whole entry A220S/I356L/K76T/N326D): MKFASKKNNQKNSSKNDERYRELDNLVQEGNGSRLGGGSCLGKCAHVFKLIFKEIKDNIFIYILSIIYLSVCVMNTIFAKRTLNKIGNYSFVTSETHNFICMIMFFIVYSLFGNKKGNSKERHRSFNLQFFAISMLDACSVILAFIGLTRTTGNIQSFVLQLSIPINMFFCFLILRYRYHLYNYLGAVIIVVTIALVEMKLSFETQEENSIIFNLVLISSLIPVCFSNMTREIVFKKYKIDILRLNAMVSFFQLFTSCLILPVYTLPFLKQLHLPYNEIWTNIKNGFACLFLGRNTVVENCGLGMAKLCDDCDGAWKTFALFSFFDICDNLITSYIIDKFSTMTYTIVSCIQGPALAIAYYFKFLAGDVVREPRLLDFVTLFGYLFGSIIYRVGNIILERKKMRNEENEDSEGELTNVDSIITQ
Sequence of PfCRT^Dd2 (Q9N623 whole entry A220S/I356T/K76T/M74I/N326S/N75E/Q271E/R371I): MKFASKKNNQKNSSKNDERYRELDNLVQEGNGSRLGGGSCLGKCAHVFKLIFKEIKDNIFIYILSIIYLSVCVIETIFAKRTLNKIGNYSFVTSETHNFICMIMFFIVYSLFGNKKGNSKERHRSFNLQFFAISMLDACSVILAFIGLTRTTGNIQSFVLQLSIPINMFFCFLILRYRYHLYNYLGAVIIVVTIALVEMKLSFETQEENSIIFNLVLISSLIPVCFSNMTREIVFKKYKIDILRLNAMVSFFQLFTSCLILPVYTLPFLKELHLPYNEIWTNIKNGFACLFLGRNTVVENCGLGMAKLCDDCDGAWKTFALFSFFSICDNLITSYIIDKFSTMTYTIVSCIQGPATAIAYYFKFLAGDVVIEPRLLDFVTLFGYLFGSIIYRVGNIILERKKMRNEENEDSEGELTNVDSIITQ

Substance	[3H]CQ transport, PfCRTDd2 ([1]; Experiment 1) [% PfCRTDd2 control]	[3H]CQ transport, PfCRTDd2 ([1]; Experiment 2) [% PfCRTDd2 control]	[3H]CQ transport, PfCRTDd2 ([1]; Experiment 3) [% PfCRTDd2 control]	[3H]CQ transport, PfCRTDd2 ([1]; Experiment 4) [% PfCRTDd2 control]	[3H]CQ transport, PfCRT3D7 ([2]; Experiment 1) [% PfCRTDd2 control]	[3H]CQ transport, PfCRT3D7 ([2]; Experiment 2) [% PfCRTDd2 control]	[3H]CQ transport, PfCRT3D7 ([2]; Experiment 3) [% PfCRTDd2 control]	[3H]CQ transport, PfCRT3D7 ([2]; Experiment 4) [% PfCRTDd2 control]	[3H]CQ transport, PfCRTEcu1110 ([3]; Experiment 1) [% PfCRTDd2 control]	[3H]CQ transport, PfCRTEcu1110 ([3]; Experiment 2) [% PfCRTDd2 control]	[3H]CQ transport, PfCRTEcu1110 ([3]; Experiment 3) [% PfCRTDd2 control]	[3H]CQ transport, PfCRTEcu1110 ([3]; Experiment 4) [% PfCRTDd2 control]	[3H]CQ transport, PfNT1 ([4]; Experiment 1) [% PfCRTDd2 control]	[3H]CQ transport, PfNT1 ([4]; Experiment 2) [% PfCRTDd2 control]	[3H]CQ transport, PfNT1 ([4]; Experiment 3) [% PfCRTDd2 control]	[3H]CQ transport, PfNT1 ([4]; Experiment 4) [% PfCRTDd2 control]	[3H]CQ transport, non-expressing oocytes ([5]; Experiment 1) [% PfCRTDd2 control]	[3H]CQ transport, non-expressing oocytes ([5]; Experiment 2) [% PfCRTDd2 control]	[3H]CQ transport, non-expressing oocytes ([5]; Experiment 3) [% PfCRTDd2 control]	[3H]CQ transport, non-expressing oocytes ([5]; Experiment 4) [% PfCRTDd2 control]
DPVNF [VF-6-derived peptide]	116.36	119.52	110.63	125.53	17.63	14.86	18.47	17.33	45.52	43.68	37.35	43.35	3.85	3.98	3.94	3.99	2.53	2.61	2.41	2.43
PVNF [VF-6-derived peptide]	115.75	122.53	112.64	109.74	16.17	15.91	16.12	16.15	47.86	40.15	37.75	41.78	3.55	3.73	3.85	3.52	2.32	2.21	2.25	2.16
VDPVN [VF-6-derived peptide]	120.53	112.56	120.67	119.43	18.56	19.52	15.43	18.35	40.67	44.84	45.43	46.24	2.85	2.88	2.95	2.89	2.84	2.91	2.78	2.94

— PMC7413254 (Nature Communications, 2020)
